Values quoted from earlier work as cited in patent US20230067402A1, “IS[…] T[…] ANALOGS THEREOF” (Biomind Labs Inc, priority 2021, published 2023).

Details: intramuscular administration

**Q.** Which “time to peak concentration in the blood” value does the source give for `CN(C)CCc1c[nH]c2ccccc12` [DMT, N,N-dimethyltryptamine] here?
**A.** Its value is 10 to 15 min.

**Q.** What about the “blood level after one hour” value (after one hour) of the same compound?
**A.** Its value is “undetectable levels”.
